Series [1] concerns Human immunodeficiency virus 1. The experiment in a line: Tested for the determination of percentage protection at 100 uM against HIV-1 in ATH8 cells. It counts as functional, ATH-8.
The test system of series [2] is Human immunodeficiency virus 1. Kind of series: Tested for the determination of percentage protection at 10 uM against HIV-1 in ATH8. It counts as functional.
The test system of series [3] is Human immunodeficiency virus 1. The experiment in a line: Tested for the determination of percentage toxicity at 10 uM against HIV-1 in ATH8 cells. It counts as organism-based. The note with it: human immunodeficiency virus 1, ath-8, 10 µM.
The subject of series [4] is Human immunodeficiency virus 1. Kind of series: Tested for the determination of percentage toxicity at 2 uM against HIV-1 in ATH8 cells. It counts as organism-based. The note with it: human immunodeficiency virus 1, ath-8, 2 µM.
Series [5] has as its system Human immunodeficiency virus 1. Kind of series: Tested for the determination of percentage toxicity at 500 uM against HIV-1 in ATH8 cells. It counts as organism-based. The note with it: human immunodeficiency virus 1, ath-8, 500 µM.
In series [6] the test system is Human immunodeficiency virus 1. The experiment in a line: Tested for the determination of percentage toxicity at 100 uM against HIV-1 in ATH8 cells. In kind it is organism-based. The note with it: human immunodeficiency virus 1, ath-8, 100 µM.
Series [7] deals with Human immunodeficiency virus 1. Kind of series: Tested for the determination of percentage protection atuM against HIV-1 in ATH8 Cells. It counts as functional.
The test system of series [8] is Human immunodeficiency virus 1. The experiment in a line: Tested for the determination of percentage protection atuM against HIV-1 in ATH8 cells. It counts as functional, ATH-8.
Series [9] concerns Human betaherpesvirus 5. Kind of series: In vitro antiviral activity tested against HCMV, AD169 strain by plaque reduction assay in human foreskin fibroblasts. It counts as functional. (Plaque reduction counts the foci of infection that form in a cell layer.)
Series [10] has as its system Human betaherpesvirus 5. The experiment in a line: In vitro antiviral activity tested against HCMV, CH strain by plaque reduction assay in human foreskin fibroblasts. It counts as functional.
Series [11] deals with Human betaherpesvirus 5. The experiment in a line: In vitro antiviral activity tested against HCMV, Davis strain by plaque reduction assay in human foreskin fibroblasts. It counts as functional.
The test system of series [12] is Human betaherpesvirus 5. The experiment in a line: In vitro antiviral activity tested against HCMV, EC strain by plaque reduction assay in human foreskin fibroblasts. In kind it is functional.
Series [13] has as its system Human betaherpesvirus 5. The experiment in a line: In vitro antiviral activity tested against HCMV, LA strain by plaque reduction assay in human foreskin fibroblasts. In kind it is functional.
The subject of series [14] is Murid betaherpesvirus 1. The experiment in a line: Tested for the effective dose required to inhibit systemic MCMV in infected mice. In kind it is functional.
Series [15] deals with Murid betaherpesvirus 1. The experiment in a line: In vitro antiviral activity tested against MCMV Smith strain by plaque reduction assay in mouse embryo fibroblasts. In kind it is functional. The note with it: read-out: ID50 (the source's name).
Series [16] deals with Murid betaherpesvirus 1. Kind of series: Tested for mean day to death of nonsurvivors against systemic MCMV infection in mice at 1.9 mg/kg per day. It counts as functional.
Series [17] relates to Murid betaherpesvirus 1. Kind of series: Number of survivors per number of systemic MCMV infected mice treated with 3.8 mg/kg per day; 10/15. In kind it is functional.
The subject of series [18] is Murid betaherpesvirus 1. The experiment in a line: Number of survivors per number of systemic MCMV infected mice treated with 33.4 mg/kg per day; 15/15. It counts as functional.
Series [19] relates to Murid betaherpesvirus 1. The experiment in a line: Number of survivors per number of systemic MCMV infected mice treated with 11.2 mg/kg per day; 15/15. It counts as functional.
Series [20] concerns Murid betaherpesvirus 1. The experiment in a line: In vitro antiviral activity tested against MCMV Smith strain by plaque reduction assay in mouse embryo fibroblasts. The note with it: read-out: ED50 (the source's name).
The test system of series [21] is Human alphaherpesvirus 1. The experiment in a line: Tested for mean day to death of nonsurvivors against HSV-1 infection in mice at 3.1 mg/kg per day. In kind it is functional.
The test system of series [22] is Human alphaherpesvirus 1. The experiment in a line: Tested for mean day to death of nonsurvivors against HSV-1 infection in mice at 12.5 mg/kg per day. In kind it is functional.
Series [23] has as its system Human alphaherpesvirus 2. Kind of series: Number of survivors per number of HSV-2 infected mice treated with 125 mg/kg per day; 3/10. It counts as functional.
For series [24], the system named is Human alphaherpesvirus 2. The experiment in a line: Number of survivors per number of HSV-2 infected mice treated with 7.8 mg/kg per day; 0/10. In kind it is functional.
The test system of series [25] is Human alphaherpesvirus 2. Kind of series: Number of survivors per number of HSV-2 infected mice treated with 31.2 mg/kg per day; 0/10. It counts as functional.
Series [26] has as its system Human alphaherpesvirus 2. Kind of series: Tested for mean day to death of nonsurvivors against HSV-2 encephalitis in mice at 125 mg/kg per day. It counts as functional.
Series [27] deals with Human alphaherpesvirus 2. The experiment in a line: Tested for mean day to death of nonsurvivors against HSV-2 encephalitis in mice at 31.2 mg/kg per day. In kind it is functional.
Series [28] relates to Human alphaherpesvirus 2. The experiment in a line: Tested for mean day to death of nonsurvivors against HSV-2 encephalitis in mice at 7.8 mg/kg per day. It counts as functional.
Series [29] relates to Human alphaherpesvirus 2. The experiment in a line: Tested for the effective dose required to inhibit HSV-2 encephalitis in infected mice. In kind it is functional.
[30] abbreviates: read-out: ED50 (the source's name).
[31] abbreviates: read-out: ID50 (the source's name).

3 compounds from ChEMBL document CHEMBL1124752, “Cyclobut-A and cyclobut-G: broad-spectrum antiviral agents with potential utility for the therapy of AIDS” (J Med Chem, 1990) can be followed below.

Values after ≈ are worked out from the molar mass of the structure shown.

For the compound `Nc1nc2c(ncn2[C@H]2CC[C@@H](CO)O2)c(=O)[nH]1`, the Protection in series [1] was determined as 99%; in series [2], 100%; in [7] it was 54%; in series [8] it was 48%. Moreover, the Cytotoxicity is on record as 0% in series [3], 0% in series [4], 50% in series [5] and 4% in series [6].
By ED50 is commonly meant the dose at which the effect has come halfway, by size or by number of responders. `Nc1nc2c(ncn2COC(CO)CO)c(=O)[nH]1` [GANCICLOVIR]: the EC50 in the series on Human betaherpesvirus 5 [9] (setting [30]) stood at 2.7 µg/mL (≈ 10.6 µM); in the series with Human betaherpesvirus 5 [10] (setting [30]), 3.1 µg/mL (≈ 12.1 µM); with Human betaherpesvirus 5 [11] (setting [30]) it was 3.6 µg/mL (≈ 14.1 µM); in the series with Human betaherpesvirus 5 [12] (setting [30]) it was 2.8 µg/mL (≈ 11 µM); with Human betaherpesvirus 5 [13] (setting [30]), 2.4 µg/mL (≈ 9.4 µM); with Murid betaherpesvirus 1 [20], 1 µg/mL (≈ 3.92 µM). The IC50 in the series with Human betaherpesvirus 5 [9] (setting [31]), in the series on Human betaherpesvirus 5 [10] (setting [31]), in the series on Human betaherpesvirus 5 [11] (setting [31]), in the series on Human betaherpesvirus 5 [12] (setting [31]), with Human betaherpesvirus 5 [13] (setting [31]) and in the series with Murid betaherpesvirus 1 [15] was above 100 µg/mL in each case. Moreover, the ED50 in the series with Murid betaherpesvirus 1 [14] is below 1.9 mg/kg/day. For the same compound, the MDD in the series with Murid betaherpesvirus 1 [16] is 7.6. In addition, the Survivors / treated in the series with Murid betaherpesvirus 1 [17] is 10; in the series with Murid betaherpesvirus 1 [18] it was 15; with Murid betaherpesvirus 1 [19], 15.
Turning to `Nc1ncnc2c1ncn2[C@@H]1O[C@H](CO)[C@@H](O)[C@@H]1O` [VIDARABINE], the MDD with Human alphaherpesvirus 1 [21] came to 6.9; in the series with Human alphaherpesvirus 1 [22], 13.5; in the series with Human alphaherpesvirus 2 [26], 11.1; with Human alphaherpesvirus 2 [27], 9.3; in the series with Human alphaherpesvirus 2 [28], 7.9. Besides, the Survivors / treated with Human alphaherpesvirus 2 [23] is 3; in the series with Human alphaherpesvirus 2 [24], 0; in the series on Human alphaherpesvirus 2 [25], 0. In addition, the ED50 in the series on Human alphaherpesvirus 2 [29] is above 125 mg/kg/day.
